Measured values reported in patent US7923004B2 (priority 2006, dated 2011).

Columns and labels:
[1] = test system: replicon resistant to 10 μM Compound #64 vs wild type Huh-7 Luc-ubi-neo/ET replicon; experiment: Cross resistance of Compound #64 resistant replicon; format: cell-based, HCV genotype 1b; settings: for EC50 Resistant Replicon/EC50 Wild Type Replicon: replicon resistant to 10 μM Compound #64 vs wild type Huh-7 Luc-ubi-neo/ET replicon
[2] = test system: HCV genotype 1b replicon (Huh-Luc-Neo cells); experiment: HCV Replicon RNA (Taqman) Assay, genotype 1b; format: cell-based; settings: Hepatitis C virus; Huh-Luc-Neo cells, genotype 1b, HCV RNA, 72 h; read-out: HCV-1b Replicon Inhibition*, Taqman (EC50)
[3] = test system: HCV Genotype 1b luc-neo/ET replicon with Y2065H mutation in NS5A; experiment: Luciferase EC50 in Huh7-Lunet cells with luc-neo/ET/Y2065H mutant vs parental luc-neo/ET replicon; format: cell-based; settings: transient replicons, 72 h
Method: Resistance of Compound #64 (Table 1) and related pyrazoles was then determined by treating Huh7-Lunet cells (Koutsoudakis et al, J. Virol. 81(2):588-98, 2007) transiently electroporated with RNAs transcribed from either the luc-neo/ET/Y2065H mutant and the parental luc-neo/ET replicons (Blight et al, J. Virol. 77(5):3181-90, 2003). Huh7-Lunet expressing the luc-neo/ET/Y2065H mutant and the parental luc-neo/ET replicons were treated with selected compounds for 72 hours. EC50 and CC50 values were determined as described in the HCV Replicon Luciferase Assay and CellTiter-Glo Cell Viability Assay protocols. […] CC50s for the compound vs. the luc-neo/ETIY2065H mutant and parental luc-neo/ET replicons were determined to be>33 μM.

[4] = test system: HCV genotype 1b replicon (Huh-Luc-Neo cells); experiment: HCV Replicon Luciferase Assay; format: cell-based; settings: Hepatitis C virus; Huh-Luc-Neo cells, genotype 1b, 72 h; read-out: HCV-1b Replicon Inhibition*, Luciferase (EC50)
[5] = Cell Titre Glo cell viability on wild type and resistant replicons; format: cell-based; settings: human
Method: (§1) EC50 determinations were performed with Compound #64 (Table 1) vs. the wild type Huh-Luc-Neo replicon cell line and the 5 resistant replicon cell lines. Resistant and wild type replicons were plated in 96 well plates (5000-7000 cells/well) and treated with compound at varying concentrations (Compound #64 (Table 1)) for 72 hours. Cells were then lysed and RNA was isolated (Qiagen RNA Easy 96 kit) according to the manufacturer's recommendations. HCV RNA levels were then measured and EC50 values were determined by cDNA synthesis and quantitative PCR using HCV specific primers and GAPDH primers as controls (Example 55, Lohman et al, Science 1999, 285, 110). The effect of the compounds on inhibition of cell viability was performed on cells treated in parallel with using the Cell Titre Glo Assay Kit (Promega) according to the manufacturer's recommendations (Example 56). CC50s for the compound vs. the wild type and resistant replicons were determined to be >50 μM.

[6] = test system: Compound #64 resistant HCV 1b replicon cell lines vs wild type Huh-Luc-Neo replicon; experiment: EC50 determination (HCV RNA, quantitative PCR) in resistant vs wild type replicon clones; format: cell-based, HCV genotype 1b
Method: An HCV Replicon cell line (luc-neo/ET) and assay (Lohman et al, Science 1999, 285, 110) was used in the present invention. Specifically the HCV 1b Replicon cell line Huh-Luc-Neo was subjected to resistance selection by growth in culture in the presence of Compound #64 (Table 1) according to methods described by Mo et al., Antimicro. Agents Chemotherapy, 49, 4305-4314, 2005. Huh-Luc-Neo cells were initially subjected to selection with 0.5 μM Compound #64 (Table 1) and selection pressure was increased gradually up to 2 μM COMPOUND #64 (TABLE 1) over a period of 7 to 9 weeks and 5 cell lines derived from individual colonies were isolated and expanded. A specific clone resistant to 2 μM Compound #64 (Table 1) (Clone Comp.64-10R4) was the subjected to further selection pressure at increasing concentrations of Compound #64 (Table 1) and a replicon resistant to 10 μM Compound #64 (Table 1) was isolated (Clone Comp.64-50R4). The wild type Huh-Luc-Neo replicon cell line was cultured in parallel with the selections and characterized in a similar fashion to the resistant clones.
as §1

[7] = Cell Titer-Glo Cell Viability Assay, genotype 1b cells; format: cell-based; settings: human, Huh-Luc-Neo (HCV genotype 1b replicon) cells, HCV genotype 1b assays, read-out: Cytotoxicity* (CC50)
Outline: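 Huh-Luc-Neo (genotype 1b) or En5-3/Htat2ANeo (genotype 1a) cells, 5000-7000/well in phenol red-free DMEM, treated with 8-9 compound concentrations for 72 h at 37° C, 5% CO2. Viability read by CellTiter-Glo luminescence after 5 min shaking at room temperature.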

Row | Structure (SMILES) | cross resistance in Compound #64 resistant replicon ([1]; replicon resistant to 10 μM Compound #64) | EC50 Resistant Replicon/EC50 Wild Type Replicon [1] | EC50 [2] [µM] | EC50 Luc-neo-ET-Y2065H/EC50 Luc-neo-ET [3] | EC50 [4] [µM] | CC50 at 72 h [5] [µM] | EC50 shift, resistant replicon vs wild type replicon ([6]; replicon resistant to 10 μM Compound #64, second NS5A mutation Y2065H) [fold] | EC50 Resistant Replicon/EC50 Wild Type Replicon ([6]; resistant clone Comp. 64-10R3, resistant conc. 2 μM) | EC50 Resistant Replicon/EC50 Wild Type Replicon ([6]; resistant clone Comp. 64-10R4, resistant conc. 2 μM) | EC50 Resistant Replicon/EC50 Wild Type Replicon ([6]; resistant clone Comp. 64-10R5, resistant conc. 2 μM) | EC50 Resistant Replicon/EC50 Wild Type Replicon ([6]; resistant clone Comp. 64-10R6, resistant conc. 2 μM) | EC50 Resistant Replicon/EC50 Wild Type Replicon ([6]; resistant clone Comp. 64-10R8, resistant conc. 2 μM) | EC50 Resistant Replicon/EC50 Wild Type Replicon ([6]; resistant clone Comp. 64-50R4, resistant conc. 10 μM) | CC50 at 72 h [7] [µM]
1 | Cc1ccc(O)c(-c2nn(C)cc2C#Cc2ccc(NC(=O)[C@@H]3COCCN3C(=O)[C@H](NC(=O)OC(C)(C)C)c3ccccc3)cc2)c1 | cross resistant | 7.125 |  |  |  |  |  |  |  |  |  |  |  | 
2 | Cc1ccc(O)c(-c2nn(C)cc2C#Cc2ccc(NC(=O)[C@H]3CCCCN3C(=O)C(NC(=O)OC(C)(C)C)c3ccccc3)cc2)c1 (stereo partly drawn) [64 (Table 1)] |  |  | < 1 | >65 | < 1 | > 50 | > 75 | 1.5 | 3.48 | 2.92 | 2.18 | 3 | >75 | > 100
3 | COc1ccc2c(O[C@@H]3C[C@H]4C(=O)N[C@]5(C(=O)O)C[C@H]5/C=C\CCCCC[C@H](NC(=O)OC5CCCC5)C(=O)N4C3)cc(-c3csc(NC(C)C)n3)nc2c1 [BILN 2061, reference compound] |  | 0.656 |  |  |  |  |  |  |  |  |  |  |  | 
